Reference: PubChem BioAssay AID296 (DTP/NCI, 2004)
Values joined by “and” are separate entries in the source; they are usually repeats but may differ in a detail not shown here. Equal values may be shown once. Inconclusive results are not listed. *1 amine or outer side, *2 acyl side, *3 side chain or, on linkers, in order; H or OH if unused. Where a SMILES comes first, the peptide text is derived from it. Bridges are numbered along the chain shown (N, C = ends). Roman numbers before positions name the chains, in order. [ ]: non-standard residue; d: D form. Actinocin(9to1) = Cc1c2oc3c(C)ccc(C(=O)[*:1])c3nc-2c(C(=O)[*:2])c(N)c1=O; aThr = C[C@H](O)[C@H](N)C(=O)O; NMeV = CN[C@H](C(=O)O)C(C)C; Sar = CNCC(=O)O

Test system: MX-1 breast xenograft, nude mice, tumor weight T/C
Experiment: NCI In Vivo Anticancer Drug Screen. Data for tumor model Human Mammary Carcinoma MX-1 Xenograft (intrarenal inoculation) in NU/NU Swiss (nude) mice
Conditions: endpoint: mean tumor weight change, higher = larger tumour
Description: The antitumor activity of compounds was measured in mice bearing transplantable tumors. Survival or tumor size were measured and the results are expressed as the measurement made in the treated group (T) divided by the measurement made in the vehicle treated control group (C). The tumor model used in this assay is Human Mammary Carcinoma MX-1 Xenograft (intrarenal inoculation) in NU/NU Swiss (nude) mice

[1] = dose: 200.0 mg/kg/injection, schedule: Q01DX010 (sc), vehicle: saline with Tween-80
[2] = dose: 300.0 mg/kg/injection, schedule: Q04DX003 (sc), vehicle: saline
[3] = dose: 600.0 mg/kg/injection, schedule: Q04DX003 (sc), vehicle: saline
[4] = dose: 8.0 mg/kg/injection, schedule: Q04DX003 (sc), vehicle: saline with Tween-80
[5] = dose: 150.0 mg/kg/injection, schedule: Q04DX003 (sc), vehicle: Klucel (hydroxypropylcellulose) (HPC)
[6] = dose: 300.0 mg/kg/injection, schedule: Q04DX003 (sc), vehicle: Klucel (hydroxypropylcellulose) (HPC)
[7] = dose: 600.0 mg/kg/injection, schedule: Q04DX003 (sc), vehicle: Klucel (hydroxypropylcellulose) (HPC)
[8] = dose: 100.0 mg/kg/injection, schedule: Q01DX010 (sc), vehicle: suspension in saline
[9] = dose: 50.0 mg/kg/injection, schedule: Q01DX010 (sc), vehicle: saline with Tween-80
[10] = dose: 100.0 mg/kg/injection, schedule: Q01DX010 (sc), vehicle: saline with Tween-80

SMILES: c1ccc(OCC2CO2)c(OCC2CO2)c1 (stereo not given)
- T/C (dose: 150.0 mg/kg/injection, schedule: Q04DX003 (ip), vehicle: saline with Tween-80): 95 % of control
- T/C (dose: 300.0 mg/kg/injection, schedule: Q04DX003 (ip), vehicle: saline with Tween-80): 99 % of control

SMILES: Cc1c2oc3c(C)ccc(C(=O)N[C@@H]4C(=O)N[C@H](C(C)C)C(=O)N5CCC[C@H]5C(=O)N(C)CC(=O)N(C)[C@@H](C(C)C)C(=O)O[C@H]4C)c3nc-2c(C(=O)N[C@@H]2C(=O)N[C@H](C(C)C)C(=O)N3CCC[C@H]3C(=O)N(C)CC(=O)N(C)[C@@H](C(C)C)C(=O)O[C@H]2C)c(N)c1=O (I: [aThr][dV]P[Sar][NMeV] / II: [aThr][dV]P[Sar][NMeV]; ester I:1-I:C, II:1-II:C; linker I:N-II:N via Actinocin(9to1))
- T/C (dose: 0.25 mg/kg/injection, schedule: Q04DX003 (sc), vehicle: saline): 34 % of control
- T/C (dose: 0.5 mg/kg/injection, schedule: Q04DX003 (sc), vehicle: saline): 11 % of control
- T/C (dose: 1.0 mg/kg/injection, schedule: Q04DX003 (sc), vehicle: saline): -46 % of control
- T/C (dose: 50.0 micrograms/kg/injection, schedule: Q01DX010 (sc), vehicle: saline): 76 % of control
- T/C (dose: 100.0 micrograms/kg/injection, schedule: Q01DX010 (sc), vehicle: saline): 23 % of control and 28 % of control and 33 % of control
- T/C (dose: 200.0 micrograms/kg/injection, schedule: Q01DX010 (sc), vehicle: saline): 1 % of control and 18 % of control

SMILES: CC(=O)Nc1ccc(C(=O)C=O)cc1
- T/C [1]: 55 % of control

SMILES: C(COCCOCC1CO1)OCCOCC1CO1 (stereo not given)
- T/C [2]: 64 % of control
- T/C [3]: 29 % of control

SMILES: COc1ccc(CC2C(=O)NC(C)C(=O)N(C)C3Cc4ccc(cc4)Oc4cc(ccc4O)CC(C(=O)NC(C)C(=O)NC(C)C(=O)N2C)N(C)C3=O)cc1 (stereo not given)
- T/C [4]: 28 % of control and 44 % of control and 47 % of control
- T/C (dose: 16.0 mg/kg/injection, schedule: Q04DX003 (sc), vehicle: saline with Tween-80): 20 % of control and 26 % of control and 43 % of control
- T/C (dose: 32.0 mg/kg/injection, schedule: Q04DX003 (sc), vehicle: saline with Tween-80): 6 % of control and 18 % of control

SMILES: [N-]=[N+]=C1N=CN=C1c1ncn[nH]1
- T/C (dose: 12.5 mg/kg/injection, schedule: Q01DX010 (sc), vehicle: Klucel (hydroxypropylcellulose) (HPC)): 121 % of control
- T/C (dose: 25.0 mg/kg/injection, schedule: Q01DX010 (sc), vehicle: Klucel (hydroxypropylcellulose) (HPC)): 76 % of control

SMILES: O=c1nc(-c2ccco2)sc(=O)[nH]1
- T/C (dose: 75.0 mg/kg/injection, schedule: Q04DX003 (sc), vehicle: Klucel (hydroxypropylcellulose) (HPC)): 122 % of control
- T/C [5]: 90 % of control
- T/C [6]: 54 % of control
- T/C [7]: 58 % of control

SMILES: CCOC(=O)C(N)CSC(=O)NC (stereo not given)
- T/C (dose: 112.0 mg/kg/injection, schedule: Q04DX003 (sc), vehicle: saline): 12 % of control
- T/C [2]: 33 % of control
- T/C (dose: 400.0 mg/kg/injection, schedule: Q04DX003 (sc), vehicle: saline): 15 % of control
- T/C [3]: 8 % of control
- T/C (dose: 800.0 mg/kg/injection, schedule: Q04DX003 (sc), vehicle: saline): 3 % of control

SMILES: OCC1OC(n2cnc3c(=S)nc[nH]c32)C(O)C1O (stereo not given)
- T/C (dose: 25.0 mg/kg/injection, schedule: Q01DX010 (sc), vehicle: saline): 38 % of control and 60 % of control
- T/C (dose: 50.0 mg/kg/injection, schedule: Q01DX010 (sc), vehicle: suspension in saline): 84 % of control
- T/C (dose: 100.0 mg/kg/injection, schedule: Q01DX010 (sc), vehicle: saline): 12 % of control and 17 % of control
- T/C [8]: -81 % of control
- T/C (dose: 200.0 mg/kg/injection, schedule: Q01DX010 (sc), vehicle: saline): -22 % of control
- T/C [2]: 98 % of control
- T/C [3]: 69 % of control
- T/C (dose: 1200.0 mg/kg/injection, schedule: Q04DX003 (sc), vehicle: saline): 39 % of control
- T/C (dose: 2400.0 mg/kg/injection, schedule: Q04DX003 (sc), vehicle: saline): 13 % of control

SMILES: CC1=C(/C=C/C(C)=C/C=C/C(C)=C/C(=O)O)C(C)(C)CCC1
- T/C (dose: 25.0 mg/kg/injection, schedule: Q01DX010 (sc), vehicle: saline with Tween-80): 86 % of control
- T/C [9]: 58 % of control
- T/C [10]: 52 % of control

SMILES: CN(C)N=Nc1cccc(C(N)=O)c1
- T/C (dose: 25.0 mg/kg/injection, schedule: Q04DX003 (sc), vehicle: Klucel (hydroxypropylcellulose) (HPC)): 100 % of control
- T/C (dose: 50.0 mg/kg/injection, schedule: Q04DX003 (sc), vehicle: Klucel (hydroxypropylcellulose) (HPC)): 52 % of control and 59 % of control and 64 % of control
- T/C [5]: 4 % of control

SMILES: C[C@@H]1C[C@@H]([C@H](O)CC2CC(=O)NC(=O)C2)C(=O)[C@@H](C)C1
- T/C (dose: 37.5 mg/kg/injection, schedule: Q04DX003 (sc), vehicle: saline): 105 % of control
- T/C (dose: 75.0 mg/kg/injection, schedule: Q04DX003 (sc), vehicle: saline): 69 % of control
- T/C (dose: 150.0 mg/kg/injection, schedule: Q04DX003 (sc), vehicle: saline): 97 % of control

SMILES: COc1cc([C@@H]2c3cc4c(c(O)c3C[C@H]3COC(=O)[C@@H]32)OCO4)cc(OC)c1OC
- T/C (dose: 2.0 mg/kg/injection, schedule: Q01DX010 (sc), vehicle: saline): 78 % of control
- T/C (dose: 4.0 mg/kg/injection, schedule: Q01DX010 (sc), vehicle: saline): 56 % of control

SMILES: C[n+]1c(/C=C\C=C\N2CCCCC2)sc2ccccc21
- T/C (dose: 0.75 mg/kg/injection, schedule: Q04DX003 (sc), vehicle: Klucel (hydroxypropylcellulose) (HPC)): 84 % of control
- T/C (dose: 1.5 mg/kg/injection, schedule: Q04DX003 (sc), vehicle: Klucel (hydroxypropylcellulose) (HPC)): 93 % of control

SMILES: CCCCOC(=O)/C=C(\Br)C(=O)OCCCC
- T/C [9]: 102 % of control
- T/C [10]: 68 % of control
- T/C [1]: 191 % of control
- T/C (dose: 400.0 mg/kg/injection, schedule: Q01DX010 (sc), vehicle: saline with Tween-80): 205 % of control

SMILES: OC1CCCC2CCC[N-]C12.OC1CCCC2CCC[N-]C12.[Mn+2] (stereo not given)
- T/C [6]: 87 % of control
- T/C [7]: 108 % of control
- T/C (dose: 1200.0 mg/kg/injection, schedule: Q04DX003 (sc), vehicle: Klucel (hydroxypropylcellulose) (HPC)): 65 % of control
- T/C (dose: 2400.0 mg/kg/injection, schedule: Q04DX003 (sc), vehicle: Klucel (hydroxypropylcellulose) (HPC)): 73 % of control

SMILES: CC[C@@]1(O)C(=O)OCc2c1cc1n(c2=O)Cc2cc3ccccc3nc2-1
- T/C (dose: 1.0 mg/kg/injection, schedule: Q04DX003 (sc), vehicle: saline with Tween-80): 100 % of control
- T/C (dose: 2.0 mg/kg/injection, schedule: Q04DX003 (sc), vehicle: saline with Tween-80): 58 % of control
- T/C (dose: 4.0 mg/kg/injection, schedule: Q04DX003 (sc), vehicle: saline with Tween-80): 23 % of control
- T/C [4]: 11 % of control

SMILES: ClCCCN1CCCCC1CCl (stereo not given)
- T/C (dose: 12.5 mg/kg/injection, schedule: Q04DX003 (sc), vehicle: saline): 51 % of control
- T/C (dose: 25.0 mg/kg/injection, schedule: Q04DX003 (sc), vehicle: saline): 1 % of control
- T/C (dose: 50.0 mg/kg/injection, schedule: Q04DX003 (sc), vehicle: saline): 3 % of control

SMILES: CCCCn1cnc2c(=S)nc[nH]c21
- T/C (dose: 300.0 mg/kg/injection, schedule: Q04DX003 (sc), vehicle: suspension in saline): 119 % of control
- T/C (dose: 600.0 mg/kg/injection, schedule: Q04DX003 (sc), vehicle: suspension in saline): 81 % of control
- T/C (dose: 1024.0 mg/kg/injection, schedule: Q04DX003 (sc), vehicle: suspension in saline): 67 % of control
- T/C (dose: 1200.0 mg/kg/injection, schedule: Q04DX003 (sc), vehicle: suspension in saline): 16 % of control
- T/C (dose: 1600.0 mg/kg/injection, schedule: Q04DX003 (sc), vehicle: suspension in saline): 49 % of control
- T/C (dose: 2000.0 mg/kg/injection, schedule: Q04DX003 (sc), vehicle: suspension in saline): 4 % of control

SMILES: N#C[C@H](OC1OC(COC2OC(CO)C(O)C(O)C2O)C(O)C(O)C1O)c1ccccc1 (stereo not given in full)
- T/C (dose: 450.0 mg/kg/injection, schedule: Q04DX003 (sc), vehicle: saline): 63 % of control
- T/C (dose: 900.0 mg/kg/injection, schedule: Q04DX003 (sc), vehicle: saline): 69 % of control
- T/C (dose: 1800.0 mg/kg/injection, schedule: Q04DX003 (sc), vehicle: saline): 70 % of control
- T/C (dose: 3600.0 mg/kg/injection, schedule: Q04DX003 (sc), vehicle: saline): 67 % of control

SMILES: O=c1n[n+]([O-])ccn1C1OC(CO)C(O)C1O (stereo not given)
- T/C [8]: 56 % of control
- T/C (dose: 200.0 mg/kg/injection, schedule: Q01DX010 (sc), vehicle: suspension in saline): 91 % of control
- T/C (dose: 400.0 mg/kg/injection, schedule: Q01DX010 (sc), vehicle: suspension in saline): 86 % of control
